What was measured:
[1] = target: T1, mutant p53 in MDA-MB-231 breast cancer cells (Homo sapiens, UniProt P04637, R280K); test: Immunoblot of mutant p53 in MDA-MB-231 cells treated with ITCs; format: cell-based; details: MDA-MB-231, 10 μM ITCs, 24 h, compared with DMSO control
T1 construct: host or cells: MDA-MB-231
From the text: Human H596, A549, HCT116, MDA-MB-231, MDA-MB-468, MCF-7, DU145, MCF-10A, SW480, and SCC-4 cells were obtained from ATCC (Manassas, Va.). H1299-175H cells were kindly provided by Dr. Maria Laura Avantaggiati (Georgetown University). Cells were maintained in DMEM or RPMI-1640 medium supplemented with 10% FBS (Hyclone). […] 2,2-Diphenylethyl ITC, 4-phenoxybenzyl ITC, 4-methoxybenzyl ITC, 4-chlorobenzyl ITC, Dα-methylbenzyl ITC, trityl ITC, and 3-phenylpropyl ITC were purchased from Trans World Chemicals (Rockville, Md.). Erucin and 4-phenylbutyl ITC were from LKT Laboratories, Inc. (St. Paul, Minn.). […] The p53 DO-1 and β-actin antibodies were purchased from Santa Cruz Biotechnology (Santa Cruz, Calif.), horseradish peroxidase-labeled goat antimouse secondary antibodies were purchased from GE-Healthcare (Pittsburgh, Pa.), and Bio-Rad Protein Assay was from Bio-Rad (Hercules, Calif.).
Whole cell lysates were prepared in lysis buffer (20 mM HEPES, pH 7.4, 2 mM EGTA, 50 mM β-glycerol phosphate, 1% Triton X-100, 10% glycerol, 1 mM DTT, 1 mM PMSF, […], 1 mM Na3-VO4, and 5 mM NaF). For immunoblot analysis, equal amounts of protein were resolved on 4-12% NuPAGE BisTris gels (Invitrogen) and transferred to PVDF membranes (Millipore). The membranes were blocked with 5% milk in TBST and were then probed with p53 (DO-1) or β-actin antibody. Proteins were detected using enhanced chemiluminescence (ECL) reagents (GE Healthcare).

[2] = test system: mutant p53 in MDA-MB-231, MDA-MB-468, DU145, SW480, and SCC-4 cells; test: Immunoblot of mutant p53 in other tumor cells with mutant p53; format: cell-based, Human
From the text: Human H596, A549, HCT116, MDA-MB-231, MDA-MB-468, MCF-7, DU145, MCF-10A, SW480, and SCC-4 cells were obtained from ATCC (Manassas, Va.). H1299-175H cells were kindly provided by Dr. Maria Laura Avantaggiati (Georgetown University). Cells were maintained in DMEM or RPMI-1640 medium supplemented with 10% FBS (Hyclone). DMSO, PEITC, BITC, SFN, AITC, NMPEA, and monochlorobimane were purchased from Sigma-Aldrich (St. Louis, Mo.). 2,2-Diphenylethyl ITC, 4-phenoxybenzyl ITC, 4-methoxybenzyl ITC, 4-chlorobenzyl ITC, Dα-methylbenzyl ITC, trityl ITC, and 3-phenylpropyl ITC were purchased from Trans World Chemicals (Rockville, Md.). Erucin and 4-phenylbutyl ITC were from LKT Laboratories, Inc. (St. Paul, Minn.). […] All the compounds are with purities ≧95% as determined by gas-liquid chromatography or HPLC. […]
Whole cell lysates were prepared in lysis buffer (20 mM HEPES, pH 7.4, 2 mM EGTA, 50 mM β-glycerol phosphate, 1% Triton X-100, 10% glycerol, 1 mM DTT, 1 mM PMSF, […], 1 mM Na3-VO4, and 5 mM NaF). […] Proteins were detected using enhanced chemiluminescence (ECL) reagents (GE Healthcare). […]

[3] = target: T2, mutant (G245C) p53 DNA-binding domain (Homo sapiens, UniProt P04637, G245C); test: Monochlorobimane fluorometric cysteine binding assay; details: 100 μM ITC, 1 h, 32 C; compared with trityl ITC, cyclohexylmethyl ITC, SFN, AITC, and PITC (p<0.05)
T2 construct: made in house; host or cells: Escherichia coli BL21
Protocol: BL21 […] Escherichia coli were transformed with pET29b wild-type or mutant (G245C) p53 DNA binding domain (DBD) plasmids. The E. coli were then cultured in LB media supplemented with 100 μM ZnCl2 and 25 μg/mL kanamycin at 37° C. until OD600=0.6-0.8. Protein expression was induced by 0.1 mM isopropyl β-D-1-thiogalactopyranoside for 16 h at 37 gC for wild-type and 16 gC for mutant p53. Bacterial pellets were then harvested by centrifugation at 5000×g, 10 min, 4 gC, and lysed via sonication in 50 mM Tris, 50 mM KCl, 5 mM dithiothreitol, 1 mM PMSF, pH 7 buffer. The soluble fraction was passed through a Capto S cation exchange column (GE Healthcare) and eluted with 50 mM Tris, 200 mM KCl, 5 mM DTT, pH 7. Eluted protein was dialyzed overnight against a non-salt dialysis buffer (50 mM Tris, 5 mM DTT, pH 7) and loaded onto a HiTrap Heparin HP column (GE Healthcare). The p53 DBD was purified via a AKTApurifier-10 protein liquid chromatography system (GE Healthcare) with an increasing KCl salt gradient, and purity was tested by SDSPAGE and Coomassie blue staining. Purified protein was dialyzed in PBS, and protein concentrations were determined prior to performing fluorescence experiments.
In a white 96-well plate, 100 μL of purified mutant (G245C) p53 DNA-binding domain protein in PBS was treated with DMSO, 100 μM ITCs in DMSO, or 500 μM iodoacetamide (positive binding control). An additional well containing 100 μL of PBS was used to determine background. Samples were incubated with compounds in the dark for 1 h at 32 gC, after which […] of 10 mM monochlorobimane was added (in the dark), and samples were further incubated in the dark at 32 gC for 30 min. Fluorescence readings were then obtained using a BIO-TEK Synergy HT plate reader (λex 380 nm; λem 485 nm).

HOP-92 (R175L) cell line = test: Cell proliferation, HOP-92; format: cell-based; details: Homo sapiens, 250 nM PEITC
Protocol: Next, the effect of PEITC exposure on tumor growth of the tumor cell lines expressing mutant or the WT p53 protein was examined. […] This hypersensitivity to PEITC being mediated through mutant p53 was next examined. The effect of PEITC on mda-mb-231 cells depleted of mutant p53 by >90% was compared to non-specific (NS) siRNA transfected cells as a control (FIG. 9B). […] Further the effect of PEITC treatment on the level of mutant p53 protein at lower doses was analyzed by western blot analysis (FIG. 9D).

With `S=C=NCCc1ccccc1` [PEITC, phenethyl isothiocyanate] the “depletion of mutant p53 at equimolar concentrations” value [1] was “approximately the same extent”, the “mutant p53 level in five cell lines” value ([2]; 10 or 15 μM PEITC, time-dependent) was “depleted mutant p53 in all five cell lines” and the “concentration causing marked reduction in the level of mutant p53 protein” value ([2]; variety of tumor cell lines) was at least 10 µM. The “binding affinity for mutant (G245C) p53 DBD (free thiols, relative fluorescence)” value [3] was “greater binding affinities” and the inhibition at 0.25 µM (HOP-92 (R175L) cell line) was 40%.

Reference: patent publication US20130158111A1, “Compositions and Methods for Depleting Mutant p53” (Georgetown University, priority 2011, published 2013)
